How the values were obtained:
[1] = system: Listeria monocytogenes CECT 4032; assay: agar diffusion test with impregnated cellulose discs; format: cell-based; conditions: incl. 6 mm disc
[2] = system: Penicillium italicum CECT 2294; assay: as above; format: cell-based; conditions: incl. 6 mm disc
Geotrichum candidum = assay: post-harvest rotting of inoculated oranges (Navelina), immersion treatment; format: in vivo
Description: (§1) This example considers the effectiveness of the active natural principles PTS and PTSO in two different doses for the control of post-harvest rotting of oranges ([…] variety), caused by controlled artificial inoculation with the fungi Penicillium digitatum, Penicillium expansum, Phytophthora citrophthora and Geotrichum candidum, the principal pathogens of this fruit. The inoculation of the oranges was carried out with suspensions of spores of the different wild fungal strains selected, according to the methodology described below. The first step was the isolation and identification of the fungal strains used in the study. The strains of filamentous fungi used in these tests (Penicillium digitatum, Penicillium italicum and Phytophthora citrophthora) were isolated from oranges affected by rot. In these isolation processes, it was not possible to detect any strain belonging to Geotrichum candidum, as a result of which it was necessary to obtain the latter substance from the Spanish Collection of Standard Cultures, where it is identified by reference CECT 1102. […] To promote the implantation of the inoculum of Geotrichum candidum, 200 ppm of cyclohexamide was added to the inoculum prior to its inoculation. […] The assessment of the effectiveness of PTS and PTSO comprised counting of the number of fruits affected by rot in the inoculated zone, to determine the percentage of fruit affected for each treatment and fungus inoculated, and expressing this effectiveness as a percentage of reduction of the affected fruit.

[3] = system: Phytophthora citrophthora; assay: as above; format: in vivo
Description: as §1

[4] = system: Penicillium sp. (CPC-PT-3); assay: agar diffusion test, wild fungi isolated from crown rot in bananas; format: cell-based; conditions: incl. 6 mm disc
[5] = system: Penicillium italicum Wild strain Supplied by UdL-IRTA; assay: agar diffusion test, wild phytopathogens isolated from citrus rot; format: cell-based; conditions: incl. 6 mm disc
[6] = system: Penicillium sp. (CPC-PT-1); assay: agar diffusion test, wild fungi isolated from crown rot in bananas; format: cell-based; conditions: incl. 6 mm disc
[7] = system: Phytophthora citrophthora CECT 2353; assay: agar diffusion test, wild phytopathogens isolated from citrus rot; format: cell-based; conditions: incl. 6 mm disc
[8] = 1600 ppm, 4 days of treatment at 20° C.
[9] = 1600 ppm, 7 days of treatment at 20° C.
[10] = 2500 ppm, 4 days of treatment at 20° C.
[11] = 2500 ppm, 7 days of treatment at 20° C.

## CCCS[S+]([O-])CCC (stereo not shown) [PTS, Propyl Propyl Thiosulfinate]
[1]; 25 ppm
  diameter of the microbial inhibition halo: 18 mm
[1]; 50 ppm
  diameter of the microbial inhibition halo: 24 mm
[1]; 100 ppm
  diameter of the microbial inhibition halo: 30 mm
[2]; 25 ppm
  diameter of the microbial inhibition halo: 22 mm
[2]; 50 ppm
  diameter of the microbial inhibition halo: 26 mm
[2]; 100 ppm
  diameter of the microbial inhibition halo: 34 mm
Geotrichum candidum; 1600 ppm, 7 days at 20° C.
  % Reduction: 95%
  % of fruit affected: 5%
Geotrichum candidum; 1600 ppm, 14 days at 20° C.
  % Reduction: 37%
  % of fruit affected: 63%
Geotrichum candidum; 2500 ppm, 7 days at 20° C.
  % Reduction: 100%
  % of fruit affected: 0%
Geotrichum candidum; 2500 ppm, 14 days at 20° C.
  % Reduction: 37%
  % of fruit affected: 63%
[3]; [8]
  % Reduction: 60%
  % of fruit affected: 18%
[3]; [9]
  % Reduction: 7%
  % of fruit affected: 93%
[3]; [10]
  % Reduction: 70%
  % of fruit affected: 8%
[3]; [11]
  % Reduction: 20%
  % of fruit affected: 80%
[4]; 30 ppm
  diameter of the microbial inhibition halo: 0 mm
[4]; 60 ppm
  diameter of the microbial inhibition halo: 0 mm
[4]; 125 ppm
  diameter of the microbial inhibition halo: 10 mm
[4]; 250 ppm
  diameter of the microbial inhibition halo: 13 mm
[4]; 500 ppm
  diameter of the microbial inhibition halo: 15 mm
[4]; 1000 ppm
  diameter of the microbial inhibition halo: 17 mm
[5]; 30 ppm
  diameter of the microbial inhibition halo: 0 mm
[5]; 60 ppm
  diameter of the microbial inhibition halo: 0 mm
[5]; 125 ppm
  diameter of the microbial inhibition halo: 13 mm
[5]; 250 ppm
  diameter of the microbial inhibition halo: 13 mm
[5]; 500 ppm
  diameter of the microbial inhibition halo: 15 mm
[5]; 1000 ppm
  diameter of the microbial inhibition halo: 20 mm
[6]; 30 ppm
  diameter of the microbial inhibition halo: 0 mm
[6]; 60 ppm
  diameter of the microbial inhibition halo: 0 mm
[6]; 125 ppm
  diameter of the microbial inhibition halo: 11 mm
[6]; 250 ppm
  diameter of the microbial inhibition halo: 15 mm
[6]; 500 ppm
  diameter of the microbial inhibition halo: 18 mm
[6]; 1000 ppm
  diameter of the microbial inhibition halo: 20 mm
[7]; 30 ppm
  diameter of the microbial inhibition halo: 10 mm
[7]; 60 ppm
  diameter of the microbial inhibition halo: 21 mm
[7]; 125 ppm
  diameter of the microbial inhibition halo: 23 mm
[7]; 250 ppm
  diameter of the microbial inhibition halo: 42 mm
[7]; 500 ppm
  diameter of the microbial inhibition halo: 53 mm
[7]; 1000 ppm
  diameter of the microbial inhibition halo: 55 mm

— US20090018194A1, “Use of antimicrobial agents derived from alliaceous plants for the prevention and control of crop diseases, post-harvest rot and as environmental disinifectant products” (DMC Research Center, S.L., priority 2007, published 2009)
